One block for each molecule: values may come before it.
Columns and labels:
[1] = biological target: T1, human recombinant PTP1B (1–302) (Homo sapiens, UniProt P18031); assay: PTP1B enzymatic assay (p-NPP hydrolysis; preliminary screening and IC50); format: biochemical; conditions: for Effect on PTP1B activity in preliminary screening: 20 µM of each compound, 30 min; for IC50: 2.5 mM p-NPP, pH 7.0, 37 °C, mean ± SD (n = 3), read-out: IC50 values determined on PTP1B
T1 construct: human recombinant PTP1B (1–302)
T1 sequence (P18031 1-302): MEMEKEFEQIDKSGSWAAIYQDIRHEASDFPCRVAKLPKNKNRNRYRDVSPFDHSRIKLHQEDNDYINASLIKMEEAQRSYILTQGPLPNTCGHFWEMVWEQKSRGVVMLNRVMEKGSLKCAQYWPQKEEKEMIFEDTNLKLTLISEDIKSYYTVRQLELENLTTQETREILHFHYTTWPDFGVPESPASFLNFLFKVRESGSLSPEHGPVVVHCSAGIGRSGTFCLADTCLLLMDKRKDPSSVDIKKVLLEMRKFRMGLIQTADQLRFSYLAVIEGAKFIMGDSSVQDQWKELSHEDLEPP
Protocol: We performed enzymatic assays as previously described. For each assay, an aliquot of human recombinant PTP1B (1–302) was added in the assay buffer (0.075 M β,β-dimethylglutarate pH 7.0 containing 1 mM EDTA, 0.1 mM DTT and a p-nitrophenylphosphate (p-NPP) (Chemcruz, Santa Cruz Biotechnology (Santa Cruz, CA, USA)). The reactions were performed at 37 °C in a final volume of 1 mL. After adequate time (30 min) of incubation, the reactions were stopped adding 2 mL of 0.1 M KOH in each sample. The released amount of p-nitrophenol, product of the reaction, was determined by measuring the absorbance at 400 nm in a 1 cm pathlength cuvette.
The IC50 value of compounds against PTP1B was determined by measuring the hydrolysis rate of the enzyme in the presence of a fixed substrate concentration (2.5 mM p-NPP) and increasing inhibitor concentrations (generally 14–16 different concentrations). Each test was carried out in triplicate. Experimental data were normalized respect to control samples and then fitted using a non-linear fitting software, using the following equation: Vi/V0=Max−Min/1+x/IC50^slope+Min where the Vi/V0 value represents the relative activity calculated in presence of each inhibitor concentration; the maximum and minimum value of the activity are represented by “Max” and “Min”, respectively; “x” is the concentration of the inhibitor; IC50 is the inhibitor concentration able to decrease the enzymatic activity up to 50%; “slope” represents the slope of the curve in the transition zone.
Figure 2 Preliminary screening assay on PTP1B. All assays were started by diluting an aliquot of PTP1B in the assay solution containing substrate alone (control test) or substrate and an aliquot of each compound (20 µM, final concentration). After 30 min, the reactions were stopped by adding a concentrated KOH solution. The enzyme activity was determined by measuring the amount of p-nitrophenol that was released in each sample using a spectrophotometer. Data obtained were normalized respect to control sample. […] Statistical analysis was carried out using one way ANOVA followed by Tukey’s HSD test for pairwise comparisons. Statistics have been drawn on raw data and compare samples to control (Ctr). * p < 0.05; ** p < 0.01.
Figure 3 Determination of the IC50 values with compounds 3, 8a, 8b, 9a and 9b. An aliquot of PTP1B enzyme was diluted in the presence of increasing concentration of the compounds. The activity of PTP1B was determined by measuring the absorbance of the sample at 400 nm, using a spectrophotometer. Data obtained were normalized respect to the control sample and analysed using a non-linear fitting software.

human recombinant AR = biological target: T2, human recombinant AR (Homo sapiens, UniProt P15121); assay: AR enzymatic assay (NADPH oxidation, L-idose substrate); format: biochemical; conditions: for % residual activity of human AR / remaining activity at 210 µM: 210 µM (maximal concentration used); for % residual activity of human AR: 210 µM; for remaining activity at 43 µM: 43 µM (maximal concentration used)
T2 construct: made in house
Protocol: The human recombinant AR, purified to electrophoretic homogeneity as described, was used as target enzyme. AR activity was determined at 37 °C as previously described by evaluating the decrease in absorbance at 340 nm linked to NADPH oxidation using a Biochrom Libra S60 spectrophotometer. The standard assay mixture contained 0.25 M sodium phosphate buffer pH 6.8, 0.18 mM NADPH, 0.42 M ammonium sulfate, 0.5 mM EDTA and 4.7 mM D,L-glyceraldehyde. One unit of enzyme activity is the amount that catalyses the conversion of 1 µmol of substrate/min in the above assay conditions. For AR inhibition studies, 0.8 mM L-idose was used as substrate in the conditions described above, in the presence of 10 mU of enzyme and of a final concentration of DMSO of 0.7% (v/v).

AR = tested on: AR; parameters: method as in PMID 34677434; conditions: cited from earlier work
PTP1B = tested on: PTP1B; parameters: method as in PMID 34677434; conditions: cited from earlier work
HepG2 cells = tested on: HepG2 cells; parameters: method as in PMID 34677434; conditions: cited from earlier work
GST–PTP1B fusion protein = tested on: GST–PTP1B fusion protein; parameters: method as in PMID 27064611; conditions: different pH value, read-out: IC50 on PTP1B previously determined; cited from earlier work
[2] = read-out: % residual activity of human AR

SMILES: O=C(O)CNC(=O)CCCCCC[C@H](O)CCCO [Compound 2]
Effect on PTP1B activity in preliminary screening [1]: loss of activity
AR inhibition (in words) (human recombinant AR): ineffective
remaining activity at 71 µM (human recombinant AR; 71 µM (maximal concentration used), read-out: % residual activity of human AR): 103 ± 4%

SMILES: CCCCC[C@H](O)[C@H](O)CC[C@H](CCCC)OC(C)=O (relative stereo) [Compound 7b]
Effect on PTP1B activity in preliminary screening [1]: loss of activity

SMILES: CCCCC[C@@H](O)[C@@H](O)CC[C@@H](O)CCCC [Compound 4a, (5S,8S,9R)-tetradecane-5,8,9-triol]
Effect on PTP1B activity in preliminary screening [1]: loss of activity
remaining activity at 43 µM (human recombinant AR; [2]): 97 ± 4%

SMILES: CCCCC[C@H](O)[C@H](O)CC[C@@H](O)CCCC [Compound 4b, (5S,8R,9S)-tetradecane-5,8,9-triol]
Effect on PTP1B activity in preliminary screening [1]: loss of activity
remaining activity at 43 µM (human recombinant AR; [2]): 98 ± 3%

SMILES: CCCCC[C@@H](O)[C@@H](O)CC[C@H](CCCC)OC(C)=O (relative stereo) [Compound 7a]
Effect on PTP1B activity in preliminary screening [1]: loss of activity

Second part, led by results:

Effect on PTP1B activity in preliminary screening [1]: reducing PTP1B activity
IC50 [1]: 83 ± 15 µM
remaining activity at 107 µM (human recombinant AR; 107 µM (maximal concentration used), read-out: % residual activity of human AR): 86 ± 2%
SMILES: CCCCC[C@@H](O)[C@H](CC[C@H](CCCC)OC(C)=O)OP(=O)(O)O (relative stereo) [Compound 9a]

IC50 [1]: 0.7 ± 0.1 µM
SMILES: CCCCCCCCCCCCCCC(OP(=O)(O)O)C(O)CCC(O)C(O)CCC(O)CCCCCCC(=O)NCC(=O)O (stereo not shown) [Phosphoeleganin, phosphoeleganin]
Type of AR inhibition (AR): mixed-type inhibitor
Type of PTP1B inhibition (PTP1B): pure non-competitive inhibitor
Activity in HepG2 cells (HepG2 cells): insulin-sensitizing activity
IC50 (GST–PTP1B fusion protein): 11 ± 2 µM

Effect on PTP1B activity in preliminary screening [1]: reducing PTP1B activity
IC50 [1]: 37.1 ± 6.5 µM
% residual activity of human AR (human recombinant AR): 74 ± 8%
remaining activity at 210 µM (human recombinant AR; [2]): 76%
SMILES: CCCCC[C@H](OP(=O)(O)O)[C@H](O)CC[C@H](CCCC)OC(C)=O (relative stereo) [Compound 8b]

Effect on PTP1B activity in preliminary screening [1]: reducing PTP1B activity
IC50 [1]: 63 ± 14 µM
% residual activity of human AR (human recombinant AR): 74 ± 6%
remaining activity at 210 µM (human recombinant AR; [2]): 77%
SMILES: CCCCC[C@H](O)[C@@H](CC[C@H](CCCC)OC(C)=O)OP(=O)(O)O (relative stereo) [Compound 9b]

Reference: PMC8950868, “Identifying Human PTP1B Enzyme Inhibitors from Marine Natural Products: Perspectives for Developing of Novel Insulin-Mimetic Drugs” (Pharmaceuticals, 2022)
